Legend:
[1] = tested on: HEK293T cells stably expressing SNAP-FLAG; test: Viability assay (CellTiter-Glo, relative ATP content); assay type: cell-based, human; conditions: 2 hours at 37° C.
Method: Viability assay: HEK293T cells stably expressing SNAP-FLAG were seeded with at 5,000 cells per well in 50 μL DMEM in a 96-well plate. Twenty-four hours later, cells were treated with a varying concentration (0, 0.5, 1, 5, 15, 45 μM in sextuplicate) of photoproximity probe PP1 in a total volume of 100 μL DMEM. After 2 hours at 37° C., a 100 μL of CellTiter-Glo® (Promega Corporation, Madison, Wis., United States of America; 5-fold DPBS dilution) was added and the plate imaged using a SYNERGY™ Neo HST plate reader (BioTek, Winooski, Vt., United States of America).
To determine if AC1 affects cell viability, a viability assay was performed. Briefly, HEK293T cells stably expressing Snap-Flag were seeded at 5,000 cells per well in 100 μL DMEM in a 96-well plate. Upon >90% confluency, media was gently removed and cells were treated with a varying concentration (0, 1, 5, 10, 15, 20, 50 uM) in sextuplicate of AC-1 in a total volume of 75 μL DMEM. After 2 hours at 37° C., media was aspirated and cells were gently washed with […] of serum free DMEM. […] Luminescence was recorded using a SYNERGY™ Neo HST plate reader (BioTek, Winooski, Vt., United States of America).
HEK293T cells stably expressing Snap-Flag were seeded at 5,000 cells per well in 100 μL DMEM in a 96-well plate. […] Luminescence was recorded using a SYNERGY™ Neo HST plate reader (BioTek, Winooski, Vt., United States of America).

KEAP1-SNAP protein = biological target: T1, KEAP1-SNAP protein (Homo sapiens, UniProt P16455+Q14145, A127T/A154D/C150Q/C62A/E30R/G131K/G132T/G153L/K125A/K32I/L33F/M134L/N157G/Q115S/Q116H/R128A/R135S/S151G/S152D/S159E); test: Probe dose response: labeling of KEAP1-SNAP fusion in live cells (Western blot); assay type: cell-based
T1 construct: expressed in transfected cells; host or cells: HEK293T, lentiviral transduction with pDC-006, blasticidin selection
Method: PP1 close response and viability assay: Dose response—Each well of a 6-well plate was seeded with 300,000 HEK293T cells stably expressing either SNAP-FLAG or KEAP-SNAP. After reaching ˜90% confluency the growth media was removed, cells washed with DPBS, and treated with varying concentrations (0, 0.5, 1, 5, 15, 45 μM) of photoproximity probe PP1 in 500 μL serum-free DMEM for 2 hours at 37° C. Post treatment, media was aspirated and non-reacted probe washed out with 3 mL full DMEM over 40 minutes, changing the media twice. Cells were harvested, washed, and lysed in DPBS containing protease inhibitor using a tip sonicator. Lysate was normalized to 1 mg/mL then diluted with loading buffer and run on SDS-PAGE gel that was transferred by western blot to nitrocellulose. The nitrocellulose membrane was stained for biotin and Flag-Tag using streptavidin IR dye (Li-cor #926-32230; Li-cor Biosciences, Lincoln, Nebr., United States of America) and anti-Flag (Sigma #F3165, Sigma-Aldrich, St. Louis, Mo., United States of America; Li-cor #926-68072, Li-cor Biosciences, Lincoln, Nebr., United States of America). Fluorescence images were collected using an Odyssey infrared imager (Li-cor Biosciences, Lincoln, Nebr., United States of America).
Both C- and N-terminal SNAP-Tag fusions of full-length, human KEAP1, in each case separated by a short linker were cloned. […] Both C- and N-terminal SNAP fusions were functional, as indicated by dose-dependent labeling with PP1 in live cells. […] Finally, it was expected that identification of probe-labeled binding partners, and therefore proteins proximal to KEAP1 in cells, would be improved by quantitative proteomic differentiation of enriched vs. background proteins. Therefore, SILAC-labeled cultures expressing both N-terminal (referred to as SNAP-KEAP1) and C-terminal (referred to as KEAP1-SNAP) fusion proteins with light and heavy arginine and lysine were prepared. Matched cultures of heavy and light cells, each expressing the same SNAP-KEAP1 or KEAP1-SNAP construct, were then treated with PP1 probe or vehicle for 2 hr. […]

T1 sequence (Q14145+P16455 fused with the stated changes): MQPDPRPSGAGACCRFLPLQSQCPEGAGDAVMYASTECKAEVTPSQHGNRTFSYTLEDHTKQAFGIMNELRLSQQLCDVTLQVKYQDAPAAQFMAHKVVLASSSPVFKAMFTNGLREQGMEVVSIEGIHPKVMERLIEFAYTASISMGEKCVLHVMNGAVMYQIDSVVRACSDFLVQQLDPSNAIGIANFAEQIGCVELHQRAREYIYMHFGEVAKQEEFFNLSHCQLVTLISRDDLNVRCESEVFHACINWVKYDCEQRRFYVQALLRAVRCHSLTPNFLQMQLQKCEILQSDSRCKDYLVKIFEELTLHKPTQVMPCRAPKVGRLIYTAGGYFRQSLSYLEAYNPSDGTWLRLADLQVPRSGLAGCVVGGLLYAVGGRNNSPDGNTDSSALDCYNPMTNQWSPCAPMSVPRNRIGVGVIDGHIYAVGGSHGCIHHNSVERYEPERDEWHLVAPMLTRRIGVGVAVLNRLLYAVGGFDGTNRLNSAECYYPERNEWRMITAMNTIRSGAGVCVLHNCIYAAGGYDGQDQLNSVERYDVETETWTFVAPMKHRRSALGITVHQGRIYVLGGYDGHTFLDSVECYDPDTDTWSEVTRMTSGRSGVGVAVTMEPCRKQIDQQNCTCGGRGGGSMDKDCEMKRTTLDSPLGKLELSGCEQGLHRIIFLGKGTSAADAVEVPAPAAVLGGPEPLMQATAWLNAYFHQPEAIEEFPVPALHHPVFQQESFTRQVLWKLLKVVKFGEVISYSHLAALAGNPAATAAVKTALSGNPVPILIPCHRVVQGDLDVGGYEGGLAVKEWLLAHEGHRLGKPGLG

Row | Compound | Cell growth or viability ([1]; AC1 0-50 uM) | Concentration at which protein is labeled (KEAP1-SNAP protein; AC1 0-50 μM, 1 or 2 hours, live HEK293T cells) | Cell permeability (KEAP1-SNAP protein; AC1, biotin-labeling of SNAP-FLAG-KEAP1 in live HEK293T cells) | Cell viability ([1]; PP1 0-45 μM (saturating doses)) | EC50 of KEAP1-SNAP fusion labeling (KEAP1-SNAP protein; PP1, live HEK293T cells, 2 hr, not irradiated)
1 | COc1cc(COC(=O)NC(CCCCNC(=O)CCC2(C)N=N2)C(=O)NCCCCC2SCC3NC(=O)NC32)c([N+](=O)[O-])cc1OCCCC(=O)NCc1ccc(COc2nc(N)nc3[nH]cnc23)cc1 (centres unmarked) [AC1] | does not impair cell growth or viability | low micromolar concentrations | cell permeable |  | 
2 | COc1cc(C(C)OC(=O)NC(CCCCNC(=O)CCC2(C)N=N2)C(=O)NCCCCCNC(=O)CCCCC2SCC3NC(=O)NC32)c([N+](=O)[O-])cc1OCCCC(=O)NCc1ccc(COc2nc(N)nc3[nH]cnc23)cc1 (centres unmarked) [PP1] |  |  |  | not affected | low micromolar

— patent US20230137943A1, “PHOTOPROXIMITY PROFILING OF PROTEIN-PROTEIN INTERACTIONS IN CELLS” (The University of Chicago, priority 2019, published 2023)
